# Data from patent US8604218B2, “Cytoskeletal active rho kinase inhibitor compounds, composition and use” (Inspire Pharmaceuticals, Inc., priority 2006, dated 2013).
# Biological target: ROCK2 (Homo sapiens (Human), UniProt O75116)
# Assay: Rho Kinase Inhibition Assay (IMAP fluorescence polarization)
# Assay type: biochemical
# Conditions: isolated enzyme, 10 μM ATP, 60 minutes at room temperature
# Protocol: Following the preincubation, 10 μM ATP was added to initiate the reaction. After 60 minutes at room temperature, Molecular Devices IMAP™ binding solution was added to bind phosphorylated substrate. After 30 minutes of incubation in the presence of the IMAP™ beads the fluorescence polarization was read and the ratio was reported as mP. IC50 results were calculated using the Prism software from Graphpad.
# See Tian et al., Arch. Ophthalmol. […] Ophthalmol. Vis. […] Ophthalmol. […] Cytoskel. […] Ophthalmol. Vis. […] Ophthalmol. Vis.
# Sequence of ROCK2 (O75116 11-552): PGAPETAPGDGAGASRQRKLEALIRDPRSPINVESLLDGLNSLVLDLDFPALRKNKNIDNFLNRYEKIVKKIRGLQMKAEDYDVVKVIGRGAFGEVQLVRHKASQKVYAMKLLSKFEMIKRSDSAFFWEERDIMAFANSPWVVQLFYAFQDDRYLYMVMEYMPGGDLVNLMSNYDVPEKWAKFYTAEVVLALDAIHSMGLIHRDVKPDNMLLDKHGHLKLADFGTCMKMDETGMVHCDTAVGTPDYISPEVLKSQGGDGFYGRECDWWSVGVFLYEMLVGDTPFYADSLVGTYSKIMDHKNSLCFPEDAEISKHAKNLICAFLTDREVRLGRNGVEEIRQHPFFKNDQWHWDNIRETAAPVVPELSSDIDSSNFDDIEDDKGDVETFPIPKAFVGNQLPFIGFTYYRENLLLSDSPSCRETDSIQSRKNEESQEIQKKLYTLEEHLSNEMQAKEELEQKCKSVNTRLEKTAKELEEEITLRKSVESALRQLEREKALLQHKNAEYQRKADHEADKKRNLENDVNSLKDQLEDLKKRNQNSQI
row,IC50,Structure (SMILES)
1,107 nM,"OCCN1CCc2ccc(CN3CCCC(Nc4ccc5[nH]ncc5c4)C3)cc21 (centres unmarked) [Compound 1.104, 2-(6-((3-(1H-indazol-5-ylamino)piperidin-1-yl)methyl)indolin-1-yl)ethanol]"
2,406 nM,"OCCOc1cccc(CN2CCC[C@@H](Nc3ccc4[nH]ncc4c3)C2)c1 [Compound 1.092, (R)-2-(3-((3-(1H-indazol-5-ylamino)piperidin-1-yl)methyl)phenoxy)ethanol]"
3,74.5 nM,"CSc1ccc(CN2CCC[C@H](Nc3ccc4[nH]ncc4c3)C2)cc1 [Compound 1.075, (S)-N-(1-(4-(methylthio)benzyl)piperidin-3-yl)-1H-indazol-5-amine]"
4,4080 nM,"c1cc(N[C@H]2CCN(Cc3ccc(C4CC4)cc3)C2)c2ccncc2c1 [Compound 2.019, (S)-N-(1-(4-cyclopropylbenzyl)pyrrolidin-3-yl)isoquinolin-5-amine]"
5,862 nM,"C[C@@H](O)COc1cccc(CN2CCC[C@@H](Nc3ccc4[nH]ncc4c3)C2)c1 [Compound 1.116, (R)-1-(3-(((R)-3-(1H-indazol-5-ylamino)piperidin-1-yl)methyl)phenoxy)propan-2-ol]"
6,2760 nM,"N#Cc1ccc(CN2CCCC(Nc3ccc4[nH]ncc4c3)C2)cc1 (centres unmarked) [Compound 1.038, 4-((3-(1H-indazol-5-ylamino)piperidin-1-yl)methyl)benzonitrile]"
7,135 nM,"Cc1cccc(CN2CCCC(Nc3ccc4[nH]ncc4c3)C2)c1C (centres unmarked) [Compound 1.016, N-(1-(2,3-dimethylbenzyl)piperidin-3-yl)-1H-indazol-5-amine]"
8,383 nM,"O=C(COc1cccc(CN2CC[C@@H](Nc3cccc4cnccc34)C2)c1)N1CCOCC1 [Compound 2.043, (R)-2-(3-((3-(isoquinolin-5-ylamino)pyrrolidin-1-yl)methyl)phenoxy)-1-morpholinoethanone]"
9,107 nM,"Cc1ccc(CN2CCCC(Nc3ccc4[nH]ncc4c3)C2)c(C)c1 (centres unmarked) [Compound 1.024, N-(1-(2,4-dimethylbenzyl)piperidin-3-yl)-1H-indazol-5-amine]"
10,223 nM,"FC(F)(F)c1cccc(CN2CCCC(Nc3ccc4[nH]ncc4c3)C2)c1 (centres unmarked) [Compound 1.063, N-(1-(3-(trifluoromethyl)benzyl)piperidin-3-yl)-1H-indazol-5-amine]"
11,328 nM,"OCCOc1cccc(CN2CCCC(Nc3ccc4[nH]ncc4c3)C2)c1 (centres unmarked) [Compound 1.039, 2-(3-((3-(1H-indazol-5-ylamino)piperidin-1-yl)methyl)phenoxy)ethanol]"
12,172 nM,"NC(=O)Cn1ccc2cc(CN3CCCC(Nc4ccc5[nH]ncc5c4)C3)ccc21 (centres unmarked) [Compound 1.105, 2-(5-((3-(1H-indazol-5-ylamino)piperidin-1-yl)methyl)-1H-indol-1-yl)acetamide]"
13,326 nM,"CCOc1cccc(CN2CCCC(Nc3ccc4[nH]ncc4c3)C2)c1 (centres unmarked) [Compound 1.065, N-(1-(3-ethoxybenzyl)piperidin-3-yl)-1H-indazol-5-amine]"
14,1020 nM,"CC(=O)c1ccc(CN2CCCC(Nc3ccc4[nH]ncc4c3)C2)cc1 (centres unmarked) [Compound 1.036, 1-(4-((3-(1H-indazol-5-ylamino)piperidin-1-yl)methyl)phenyl)ethanone]"
15,101 nM,"CS(=O)(=O)Nc1cccc(CN2CCC[C@@H](Nc3ccc4[nH]ncc4c3)C2)c1 [Compound 1.093, (R)-N-(3-((3-(1H-indazol-5-ylamino)piperidin-1-yl)methyl)phenyl)methanesulfonamide]"
16,604 nM,"Cc1n[nH]c2ccc(NC3CCCN(Cc4ccccc4)C3)cc12 (centres unmarked) [Compound 1.049, N-(1-benzylpiperidin-3-yl)-3-methyl-1H-indazol-5-amine]"

row,IC50,Structure (SMILES)
1,165 nM,"FC(F)(F)c1cccc(CN2CCC(Nc3ccc4[nH]ncc4c3)C2)c1 (centres unmarked) [Compound 1.064, N-(1-(3-(trifluoromethyl)benzyl)pyrrolidin-3-yl)-1H-indazol-5-amine]"
2,6600 nM,"CC(C)(C)OC(=O)NCc1ccc(CN2CCCC(Nc3ccc4[nH]ncc4c3)C2)cc1 (centres unmarked) [Compound 1.027, tert-butyl 4-((3-(1H-indazol-5-ylamino)piperidin-1-yl)methyl)benzylcarbamate]"
3,3630 nM,"O=C(O)Cn1ccc2cc(CN3CCCC(Nc4ccc5[nH]ncc5c4)C3)ccc21 (centres unmarked) [Compound 1.119, 2-(5-((3-(1H-indazol-5-ylamino)piperidin-1-yl)methyl)-1H-indol-1-yl)acetic acid]"
4,156 nM,"Oc1cccc(CN2CCCC(Nc3ccc4[nH]ncc4c3)C2)c1 (centres unmarked) [Compound 1.046, 3-((3-(1H-indazol-5-ylamino)piperidin-1-yl)methyl)phenol]"
5,1300 nM,"OCCOc1cccc(CN2CC[C@@H](Nc3ccc4[nH]ncc4c3)C2)c1 [Compound 1.096, (R)-2-(3-((3-(1H-indazol-5-ylamino)pyrrolidin-1-yl)methyl)phenoxy)ethanol]"
6,6510 nM,"C(#CC1CC1)c1ccc(CN2CCCC(Nc3ccc4[nH]ncc4c3)C2)cc1 (centres unmarked) [Compound 1.044, N-(1-(4-(cyclopropylethynyl)benzyl)piperidin-3-yl)-1H-indazol-5-amine]"
7,334 nM,"CC(C)c1ccc(CN2CCCC(Nc3ccc4[nH]ncc4c3)C2)cc1 (centres unmarked) [Compound 1.023, N-(1-(4-isopropylbenzyl)piperidin-3-yl)-1H-indazol-5-amine]"
8,87.2 nM,"CCOC(=O)COc1cccc(CN2CCCC(Nc3ccc4[nH]ncc4c3)C2)c1 (centres unmarked) [Compound 1.060, ethyl 2-(3-((3-(1H-indazol-5-ylamino)piperidin-1-yl)methyl)phenoxy)acetate]"
9,716 nM,"Clc1ccc(CN2CCC(Nc3cccc4cnccc34)C2)cc1Cl (centres unmarked) [Compound 2.016, N-(1-(3,4-dichlorobenzyl)pyrrolidin-3-yl)isoquinolin-5-amine]"
10,310 nM,"O=C(O)COc1cccc(CN2CCCC(Nc3ccc4[nH]ncc4c3)C2)c1 (centres unmarked) [Compound 1.086, 2-(3-((3-(1H-indazol-5-ylamino)piperidin-1-yl)methyl)phenoxy)acetic acid]"
11,168 nM,"CCS(=O)(=O)Nc1cccc(CN2CC[C@@H](Nc3cccc4cnccc34)C2)c1 [Compound 2.041, (R)-N-(3-((3-(isoquinolin-5-ylamino)pyrrolidin-1-yl)methyl)phenyl)ethanesulfonamide]"
12,25.8 nM,"NC(=O)Cn1ccc2ccc(CN3CCCC(Nc4ccc5[nH]ncc5c4)C3)cc21 (centres unmarked) [Compound 1.099, 2-(6-((3-(1H-indazol-5-ylamino)piperidin-1-yl)methyl)-1H-indol-1-yl)acetamide]"
13,250 nM,"NC(=O)COc1cccc(CN2CCCC(Nc3ccc4[nH]ncc4c3)C2)c1 (centres unmarked) [Compound 1.098, 2-(3-((3-(1H-indazol-5-ylamino)piperidin-1-yl)methyl)phenoxy)acetamide]"
14,29.9 nM,"Cc1ccc(CN2CC[C@@H](Nc3cccc4cnccc34)C2)cc1 [Compound 2.025, (R)-N-(1-(4-methylbenzyl)pyrrolidin-3-yl)isoquinolin-5-amine]"
15,435 nM,"NS(=O)(=O)c1cccc(CN2CCCC(Nc3ccc4[nH]ncc4c3)C2)c1 (centres unmarked) [Compound 1.056, 3-((3-(1H-indazol-5-ylamino)piperidin-1-yl)methyl)benzenesulfonamide]"
16,87.1 nM,"C#Cc1ccc(CN2CC[C@@H](Nc3cccc4cnccc34)C2)cc1 [Compound 2.031, (R)-N-(1-(4-ethynylbenzyl)pyrrolidin-3-yl)isoquinolin-5-amine]"
